Measurements published in patent publication US20100278940A1, “Calcium supplements” (HL DISTRIBUTION COMPANY, priority 2005, published 2010).

What was measured:
[1] = tested on: osteoblastic hFOB 1.19 cells; experiment: MDA assay (H2O2-induced oxidative stress, lipid peroxidation); type: cell-based, human; details: 24 h
Protocol: (§1) These alterations in temperature were required because hFOB 1.19 cells were conditionally immortalized with a gene encoding a temperature-sensitive mutant (tsA58) of SV40 large T antigen.
(§2) AC was dissolved in HCl:H2O mixture at the ratio of 13:2. Calcium carbonate and calcium citrate were dissolved in distilled water. The stock solution of vitamin D3 was dissolved in ethyl alcohol as per the manufacturer's instructions and directly added in the medium to achieve its final concentration. […] The amount of calcium present in 0.5 mg of AC is 0.15 mg. […] Finally, the pH was maintained same in all the preparations.
After 24 h of treatment with compounds in the presence and absence of H2O2 (0.3 mM), the cells were washed with cold PBS, scraped, and homogenized in lysis buffer. […] of cell lysate was used for measuring the MDA levels by following the manufacturer's instructions. […] In this study, MDA standard was used to construct a standard curve.
(§3) Data were expressed as the mean±SEM of 3-6 independent experiments. Statistical comparisons of the results were made using one way analysis of variance (ANOVA). Significant differences (p≦0.05) between the means of control and test group were analyzed by the Neuman-Keuls multiple comparison test.

[2] = tested on: Human fetal osteoblast cells (hFOB 1.19); experiment: Mineralization/calcium deposition assay (Alizarin Red S); type: cell-based; details: 2 days treatment, without vitamin D3; mean±SEM
Protocol: as §1, §2, §3

[3] = tested on: Human fetal osteoblast cells (hFOB 1.19); experiment: DNA synthesis assay ([3H] thymidine incorporation); type: cell-based; details: 4 days treatment, without vitamin D3; mean±SEM
Protocol: as §1, §2, §3

[4] = tested on: Human fetal osteoblast cells (hFOB 1.19); experiment: Alkaline phosphatase (ALP) activity in osteoblast cells; type: cell-based; details: 4 days; AC 0.5 mg/ml, 0.15 mg/ml calcium from carbonate or citrate; mean±SEM
Protocol: as §1, §2, §3

[5] = tested on: Human fetal osteoblast cells (hFOB 1.19); experiment: Immunocytochemistry for proliferating cell nuclear antigen (PCNA) expression; type: cell-based; details: 4 days treatment, without vitamin D3
Protocol: Human fetal osteoblast cells (hFOB 1.19-ATCC number: CRL-11372) were seeded at a density of 10,000 cells cm^−2 in a mixture of Dulbecco's modified eagle medium (DMEM) and Ham F12 medium (1:1 ratio) supplemented with 10% fetal bovine serum (FBS) and 0.3 mg/ml […]. Osteoblast cells were cultured in a humidified atmosphere of 5% CO2 at 33.5° C. for cell attachment and proliferation and at 39.5° C. for other assays. These alterations in temperature were required because hFOB 1.19 cells were conditionally immortalized with a gene encoding a temperature-sensitive mutant (tsA58) of SV40 large T antigen.
AC was dissolved in HCl:H2O mixture at the ratio of 13:2. Calcium carbonate and calcium citrate were dissolved in distilled water. The stock solution of vitamin D3 was dissolved in ethyl alcohol as per the manufacturer's instructions and directly added in the medium to achieve its final concentration. […] The same dose was used for further experiments in the present study. The amount of calcium present in 0.5 mg of AC is 0.15 mg. […] Finally, the pH was maintained same in all the preparations.
To evaluate proliferative activity, immunohistochemistry for PCNA was performed after 4 days treatment of AC, calcium carbonate and calcium citrate. The experiment was done by following the instructions of PCNA staining kit (Invitrogen). […]

[6] = in presence of 0.3 mM H2O2, mean±SEM

OO [Example H2O2, H2O2]
MDA levels ([1]; 0.3 mM H2O2 alone, control 0.6768±0.084): 1.992 ± 0.116 µM

O=C([O-])[O-].[Ca+2] [calcium carbonate, Calcium carbonate]
MDA levels [1, 6]: 1.263 ± 0.062 µM
calcium deposition (mineralization) [2]: 0.1810±0.0115 OD at 561 nm
[3H] thymidine incorporation counts (DNA synthesis) [3]: 62.8±11.6 cpm
ALP activity [4]: 372.2±15.7 nmol/mg protein

O=C([O-])CC(O)(CC(=O)[O-])C(=O)[O-].O=C([O-])CC(O)(CC(=O)[O-])C(=O)[O-].[Ca+2].[Ca+2].[Ca+2] [calcium citrate]
MDA levels [1, 6]: 1.289 ± 0.109 µM
calcium deposition (mineralization) [2]: 0.1267±0.0054 OD at 561 nm
[3H] thymidine incorporation counts (DNA synthesis) [3]: 45±9.9 cpm
ALP activity [4]: 302.1±47.8 nmol/mg protein
expression of PCNA [5]: considerably higher than the control and calcium carbonate-treated cells
